Results reported in publication PMC5029682, “Discovery and characterization of Isofistularin-3, a marine brominated alkaloid, as a new DNA demethylating agent inducing cell cycle arrest and sensitization to TRAIL in cancer cells” (Oncotarget, 2016).

Assays:
[1] = target: T1, DNMT1 (Homo sapiens, UniProt P26358); test: in vitro DNMT activity/inhibition assay (colorimetric, Active Motif) with purified DNMT1; format: biochemical
[2] = target: T1, DNMT1; test: in vitro DNMT activity/inhibition assay with purified DNMT1, positive control; format: biochemical

T1 sequence (P26358 whole entry): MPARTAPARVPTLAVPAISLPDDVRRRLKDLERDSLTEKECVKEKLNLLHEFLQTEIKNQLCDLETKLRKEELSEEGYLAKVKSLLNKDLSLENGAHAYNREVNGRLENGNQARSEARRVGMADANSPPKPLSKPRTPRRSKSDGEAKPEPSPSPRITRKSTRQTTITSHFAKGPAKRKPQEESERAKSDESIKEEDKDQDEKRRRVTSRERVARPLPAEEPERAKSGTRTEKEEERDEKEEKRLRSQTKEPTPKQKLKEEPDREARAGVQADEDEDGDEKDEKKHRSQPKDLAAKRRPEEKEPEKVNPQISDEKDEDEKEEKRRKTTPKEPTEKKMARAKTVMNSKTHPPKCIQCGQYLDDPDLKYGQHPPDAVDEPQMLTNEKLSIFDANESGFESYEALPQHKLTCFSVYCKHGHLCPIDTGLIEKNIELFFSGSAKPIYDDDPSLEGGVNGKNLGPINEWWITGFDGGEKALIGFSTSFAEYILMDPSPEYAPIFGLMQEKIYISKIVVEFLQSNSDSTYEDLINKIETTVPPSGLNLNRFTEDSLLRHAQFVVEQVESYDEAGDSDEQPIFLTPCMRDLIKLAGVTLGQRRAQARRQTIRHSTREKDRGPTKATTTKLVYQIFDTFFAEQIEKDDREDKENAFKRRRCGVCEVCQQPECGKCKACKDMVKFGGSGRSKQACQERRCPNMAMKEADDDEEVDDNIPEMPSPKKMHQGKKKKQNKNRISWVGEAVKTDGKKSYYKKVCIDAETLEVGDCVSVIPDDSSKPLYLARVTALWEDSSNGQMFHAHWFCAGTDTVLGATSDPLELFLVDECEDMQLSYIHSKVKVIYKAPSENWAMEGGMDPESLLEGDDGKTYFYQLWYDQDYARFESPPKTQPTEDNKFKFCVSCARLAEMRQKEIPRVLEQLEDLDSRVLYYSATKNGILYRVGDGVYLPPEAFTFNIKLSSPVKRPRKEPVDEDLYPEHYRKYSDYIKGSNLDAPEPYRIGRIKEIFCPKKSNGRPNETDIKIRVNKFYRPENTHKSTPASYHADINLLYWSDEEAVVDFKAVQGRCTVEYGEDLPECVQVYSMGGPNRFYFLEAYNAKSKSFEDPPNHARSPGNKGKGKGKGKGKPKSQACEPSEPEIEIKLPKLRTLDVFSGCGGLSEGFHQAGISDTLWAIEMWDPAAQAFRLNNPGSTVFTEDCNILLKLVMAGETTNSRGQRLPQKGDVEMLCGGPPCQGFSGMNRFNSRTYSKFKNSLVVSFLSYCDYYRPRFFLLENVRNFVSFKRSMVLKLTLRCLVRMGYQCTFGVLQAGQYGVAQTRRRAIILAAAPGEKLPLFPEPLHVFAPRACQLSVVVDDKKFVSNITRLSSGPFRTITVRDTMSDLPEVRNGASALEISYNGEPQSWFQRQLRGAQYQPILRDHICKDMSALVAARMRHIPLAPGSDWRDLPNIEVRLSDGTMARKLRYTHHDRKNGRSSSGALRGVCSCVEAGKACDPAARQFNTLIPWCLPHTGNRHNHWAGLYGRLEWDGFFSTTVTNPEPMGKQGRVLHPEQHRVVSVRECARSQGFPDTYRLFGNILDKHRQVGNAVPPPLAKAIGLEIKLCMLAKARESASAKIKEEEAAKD

SMILES	IC50 [1]	in vitro DNMT activity/inhibition assay with purified DNMT1, positive control [2]
COC1=C(Br)[C@H](O)[C@@]2(C=C1Br)CC(C(=O)NCC(O)COc1c(Br)cc(C(O)CNC(=O)C3=NO[C@]4(C=C(Br)C(OC)=C(Br)[C@@H]4O)C3)cc1Br)=NO2 (some centres unmarked) [Iso-3, Isofistularin-3]	13.5 ± 5.4 µM	–
O=C(O[C@@H]1Cc2c(O)cc(O)cc2O[C@@H]1c1cc(O)c(O)c(O)c1)c1cc(O)c(O)c(O)c1 [EGCG, Epigallocatechin gallate]	–	Green tea polyphenol EGCG was used as a positive control for in vitro DNMT1 inhibition.
